Experimental data from paper PMC10352257, “In vivo effects of the alpha-synuclein misfolding inhibitor minzasolmin supports clinical development in Parkinson’s disease” (NPJ Parkinson's Disease, 2023).
Entries after “also recorded” stand apart in the source; their conditions may differ. Like-named read-outs stand apart in the source and are kept apart here.

What was measured:
[1] = Mouse pharmacokinetics after single intraperitoneal dose (plasma and brain); assay type: in vivo; details: for AUC last / Cmax / AUC(0-t): mean ± SEM; for Kp / Tmax / half-life / Cmax / AUC(0-inf) / AUC(0-t): male, C57BL/6, mouse, ip; for Kp: brain and plasma, from AUCinf, read-out: brain/plasma exposure (AUC) ratio
Description: Characterization of exposure profile and brain distribution of minzasolmin in male C57BL/6 mice was performed at UCB BioPharma SPRL (Braine l’Alleud, Belgium). All the procedures were approved by the UCB Ethics Committee for Animal Experimentation and conducted in compliance with the Helsinki declaration and the guidelines of the European Community Council directive 86/609/EEC. UCB BioPharma is fully accredited by the Association for Assessment and Accreditation of Laboratory Animal Care (AAALAC). Male C57BL/6 mice (8 weeks of age, 20–27 g), purchased from Charles River Laboratories (Toulouse, France), were dosed intraperitoneally with 1 or 5 mg/kg of minzasolmin (10 mL/kg of 40% w/v Captisol® in water). Three mice were used per dose and per time of sampling (0.25, 0.5, 1, 2.5, and 6 h). Mice were anaesthetized with isofluorane and blood was collected from the vena cava into K2EDTA tubes. Animals were then perfused through the left ventricle with 20 mL of heparinized NaCl 0.9% (20 UI/mL), rate flow 20 mL/min, 1 min perfusion time. At the end of the procedure mice were sacrificed by cervical dislocation. Brain samples were weighed and collected in cold glass vials and stored at −20 °C, until bioanalysis. All blood samples were thoroughly but gently mixed following collection and placed directly on ice then centrifuged at 4 °C, 3000 g for 15 min within 30 min after sampling. The collected plasma was stored at −20 °C, until bioanalysis. Samples were analyzed by liquid chromatography-tandem mass spectrometry (LC-MS/MS). Results of minzasolmin concentrations in plasma and brain are reported in ng/mL and ng/g respectively. Pharmacokinetic profiling was performed by non-compartmental analysis, using Phoenix WinNonlin v6.4 software (Pharsight Inc., St. Louis, MO). All computations utilized the sparse sampling method according to the experimental composite sampling regimen.

Line 61 transgenic mice = assay: Round beam traversal test (composite gait score), 3-month administration study; assay type: in vivo, mouse; details: for round beam composite score, Kruskal-Wallis mean rank: Line 61 tg, Line 61 tg/Vehicle 6.611, Non-tg/Vehicle 34.25
Text: A transgenic mouse model of Parkinson’s disease overexpressing human wild-type ASYN under the murine Thy-1 promoter on a mixed C57Bl/6 background was used in the present studies (commonly referred to Line 61)[49]. The Line 61 transgenic mouse model of Parkinson’s disease develops extensive accumulation of ASYN in areas relevant to Parkinson’s disease[49]–[51], neurodegeneration (as evidenced by loss of tyrosine hydroxylase[52],[53] and dopamine transporter immunoreactivity[18] in the striatum), inflammation, and both motor and non-motor functional deficits. Multiple cohorts of mice were transferred from the University of California, San Diego to a Neuropore-funded AAALAC-accredited vivarium facility per a laboratory service agreement between Neuropore Therapies, Inc. and the laboratory of Dr. Eliezer Masliah under institutional animal care and use committee (IACUC) Protocol S02221. All in vivo testing was conducted by Neuropore personnel under Explora Biosciences animal care and use protocol (ACUP) number E15-016-2. Three-month-old male transgenic and age-matched non-transgenic littermate control mice were used and housed up to 5 per cage. Animals received free access to food and water prior to the experiment. The vivarium ambient room temperature was monitored daily and kept within a range of 68–72 degrees Fahrenheit. […]
Line 61 transgenic mice have robust and visually apparent deficits in gait as evaluated in the round beam traversal test by 6 months of age that are improved by treatment with small molecule compounds including ASYN misfolding inhibitors[17],[18] and the molecular tweezer compound CLR01[56]. […] Videotapes were then scored by a secondary evaluator using a newly developed composite rating system for specific observed features of Line 61 gait during the round beam assessment. […] Scores were analyzed by nonparametric Kruskal–Wallis one-way ANOVA with key comparisons defined a priori, first to test for a phenotypic difference between vehicle-treated groups and then to test for minzasolmin-related treatment effects in Line 61 transgenic mice. […]

[2] = set-up: method as in PMID 35959805; details: normal healthy volunteers and patients with Parkinson's disease; cited from earlier work
[3] = brain, 1 mg/kg single i.p., C57/Bl6 mice
[4] = brain, 5 mg/kg single i.p., C57/Bl6 mice
[5] = plasma, 1 mg/kg single i.p., C57/Bl6 mice
[6] = plasma, 5 mg/kg single i.p., C57/Bl6 mice

Compound: CCCC[C@H](Cc1c[nH]c2ccccc12)NC(=O)c1cnc(N2CCN(C)CC2)s1 [minzasolmin]
- AUC inf [1, 3]: 99.0 ng·h/g
- AUC last [1, 3]: 93.9 ± 4.2 ng·h/g
- AUC inf [1, 4]: 422 ng·h/g
- AUC last [1, 4]: 394 ± 21 ng·h/g
- time of highest brain levels after dosing ([1]; brain, 1 and 5 mg/kg i.p.): 0.5 h
- Kp ([1]; 1 mg/kg i.p.): 0.32
- Kp ([1]; 5 mg/kg i.p.): 0.26
- Tmax ([1]; brain, 1 mg/kg, brain, 1 mg/kg single i.p., C57/Bl6 mice, read-out: T max): 30 min
- Tmax ([1]; brain, 5 mg/kg, brain, 5 mg/kg single i.p., C57/Bl6 mice, read-out: T max): 30 min
- half-life [1, 3]: 33.6 min
- Cmax [1, 3]: 76 ± 4 ng/g
- half-life [1, 4]: 36 min
- Cmax [1, 4]: 292 ± 30 ng/g
- AUC(0-inf) [1, 5]: 308 ng·h/mL
- half-life [1, 5]: 41.4 min
- AUC(0-t) [1, 5]: 307 ± 13 ng·h/mL
- Cmax [1, 5]: 332 ± 18 ng/mL
- AUC(0-inf) [1, 6]: 1650 ng·h/mL
- half-life [1, 6]: 49.8 min
- AUC(0-t) [1, 6]: 1640 ± 86 ng·h/mL
- Cmax [1, 6]: 1320 ± 124 ng/mL
- Tmax ([1]; plasma, 1 mg/kg, plasma, 1 mg/kg single i.p., C57/Bl6 mice, read-out: T max): 30 min
- Tmax ([1]; plasma, 5 mg/kg, plasma, 5 mg/kg single i.p., C57/Bl6 mice, read-out: T max): 15 min
- Tmax ([1]; plasma, 5 mg/kg, plasma, 1 and 5 mg/kg i.p., read-out: time of maximum plasma concentration after dosing): 15 to 30 min
- effect on round beam composite score (gait) vs vehicle-treated Line 61 transgenic mice (Line 61 transgenic mice; 1 mg/kg, after 70 days of treatment, P < 0.01): improved; also recorded: attenuated
- round beam composite score, Kruskal-Wallis mean rank (Line 61 transgenic mice; 1 mg/kg): 21.77
- round beam composite score, Kruskal-Wallis mean rank (Line 61 transgenic mice; 5 mg/kg): 16.80
- safety and pharmacokinetic profiles [2]: favorable
